Read-outs that look alike come from different tables or passages of the source.
Assay type: physicochemical
Conditions: for degradation of the API: 3 months; for Initial (%): at time of receipt of the API from the supplier

Row | Structure (SMILES) | degradation of the API | Initial (%) (Sodium Fusidate BP) | Initial (%) (Fusidic Acid BP)
1 | CC(=O)O[C@H]1C[C@@]2(C)[C@@H](C[C@@H](O)[C@H]3[C@@]4(C)CC[C@@H](O)[C@@H](C)[C@@H]4CC[C@@]32C)/C1=C(\CCC=C(C)C)C(=O)O [Sodium Fusidate] | 2.45-6% | 98.7 | 
2 | CC(=O)O[C@H]1C[C@@]2(C)[C@@H](C[C@@H](O)[C@H]3[C@@]4(C)CC[C@@H](O)[C@@H](C)[C@@H]4CC[C@@]32C)/C1=C(\CCC=C(C)C)C(=O)O [Fusidic Acid, Fusidic acid] | 7.7-11% |  | 100.6

From patent US20110301137A1 (APEX LABORATORIES PRIVATE LIMITED, priority 2009, published 2011)
